Laboratory results taken from US9802901B2, “Antibacterial 2H-indazole derivatives” (priority 2013, dated 2017).
≈ marks a conversion by molar mass, not a printed value.

Columns and labels:
Experiment in all cases: Bacterial growth minimal inhibitory concentration (broth microdilution, CLSI M7-A7)
P. aeruginosa ATCC27853 = format: cell-based, Pseudomonas aeruginosa; details: Pseudomonas aeruginosa, ATCC27853; cation-adjusted Mueller-Hinton Broth, microdilution; quinolone-sensitive strain; read-out: MIC for P. aeruginosa ATCC27853
In short: (§1)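 Broth microdilution in cation-adjusted Mueller-Hinton Broth per CLSI M7-A7; MICs reported in mg/L. K. pneumoniae A-651 and A. baumannii T6474 are multiply resistant, quinolone-resistant strains; E. coli ATCC25922 and P. aeruginosa ATCC27853 are quinolone-sensitive.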

K. pneumoniae A-651 = format: cell-based, Klebsiella pneumoniae; details: Klebsiella pneumoniae, A651; cation-adjusted Mueller-Hinton Broth, microdilution; multiply-resistant (quinolone-resistant) strain; read-out: MIC for K. Pneumoniae A-651
In short: as §1

[1] = system: Acinetobacter baumannii T6474; format: cell-based; details: Acinetobacter baumannii, T6474; cation-adjusted Mueller-Hinton Broth, microdilution; multiply-resistant (quinolone-resistant) strain; read-out: MIC for A. Baumannii T6474
In short: as §1

E. coli ATCC25922 = format: cell-based, Escherichia coli; details: Escherichia coli, ATCC25922; cation-adjusted Mueller-Hinton Broth, microdilution; quinolone-sensitive strain; read-out: MIC for E. coli ATCC25922
In short: as §1

Compound	MIC (P. aeruginosa ATCC27853)	MIC (K. pneumoniae A-651)	MIC [1]	MIC (E. coli ATCC25922)
C[C@@](CCn1cc2cc(-c3ccc(OC[C@H](O)CO)cc3F)ccc2n1)(C(=O)NO)S(C)(=O)=O [Example 58, (R)-4-(5-(4-((R)-2,3-dihydroxypropoxy)-2-fluorophenyl)-2H-indazol-2-yl)-N-hydroxy-2-methyl-2-(methylsulfonyl)butanamide]	2 µg/mL (≈ 4.04 µM)	4 µg/mL (≈ 8.07 µM)	8 µg/mL (≈ 16.1 µM)	2 µg/mL (≈ 4.04 µM)
C[C@@](CCn1cc2cc(C#Cc3ccc(N)cc3)ccc2n1)(C(=O)NO)S(C)(=O)=O [Example 19, (R)-4-[5-(4-amino-phenylethynyl)-indazol-2-yl]-N-hydroxy-2-methylsulfonyl-2-methyl-butanamide]	2 µg/mL (≈ 4.69 µM)	0.125 µg/mL (≈ 0.293 µM)	0.5 µg/mL (≈ 1.17 µM)	0.063 µg/mL (≈ 0.148 µM)
C[C@@](CCn1cc2cc(C#CC#CC3(CO)COC3)ccc2n1)(C(=O)NO)S(C)(=O)=O [Example 68, (R)—N-hydroxy-4-(5-((3-(hydroxymethyl)oxetan-3-yl)buta-1,3-diyn-1-yl)-2H-indazol-2-yl)-2-methyl-2-(methylsulfonyl)butanamide]	1 µg/mL (≈ 2.24 µM)	1 µg/mL (≈ 2.24 µM)	> 32 µg/mL	1 µg/mL (≈ 2.24 µM)
C[C@@](CCn1cc2cc(C#CC#CC3CCNCC3)ccc2n1)(C(=O)NO)S(C)(=O)=O [Example 76, (R)—N-hydroxy-2-methyl-2-(methylsulfonyl)-4-(5-(piperidin-4-ylbuta-1,3-diyn-1-yl)-2H-indazol-2-yl)butanamide]	2 µg/mL (≈ 4.52 µM)	32 µg/mL (≈ 72.3 µM)	> 32 µg/mL	8 µg/mL (≈ 18.1 µM)
CC(CCn1cc2cc(C#Cc3ccc(C4(O)COC4)cc3)c(F)cc2n1)(C(=O)NO)S(C)(=O)=O (stereo not drawn) [Example 40, 4-(6-fluoro-5-((4-(3-hydroxyoxetan-3-yl)phenyl)ethynyl)-2H-indazol-2-yl)-N-hydroxy-2-methyl-2-(methylsulfonyl)butanamide]	1 µg/mL (≈ 1.99 µM)	0.25 µg/mL (≈ 0.498 µM)	1 µg/mL (≈ 1.99 µM)	0.125 µg/mL (≈ 0.249 µM)
C[C@@](CCn1cc2cc(C#CC#CC3CCC(NC(=O)CN)C3)ccc2n1)(C(=O)NO)S(C)(=O)=O (stereo partly drawn) [Example 70, (R)-4-(5-((3-(2-aminoacetamido)cyclopentyl)buta-1,3-diyn-1-yl)-2H-indazol-2-yl)-N-hydroxy-2-methyl-2-(methylsulfonyl)butanamide]	2 µg/mL (≈ 4 µM)	1 µg/mL (≈ 2 µM)	> 32 µg/mL	1 µg/mL (≈ 2 µM)
C[C@@](CCn1cc2cc(-c3ccc(NC(=O)CO)cc3)ccc2n1)(C(=O)NO)S(C)(=O)=O [Example 49, (R)—N-hydroxy-4-(5-(4-(2-hydroxyacetamido)phenyl)-2H-indazol-2-yl)-2-methyl-2-(methylsulfonyl)butanamide]	4 µg/mL (≈ 8.69 µM)	4 µg/mL (≈ 8.69 µM)	> 32 µg/mL	4 µg/mL (≈ 8.69 µM)
C[C@@](CCn1cc2cc(C#CC#C[C@H]3C[C@@H]3CO)ccc2n1)(C(=O)NO)S(C)(=O)=O.O=CO [Example 36, (R)—N-hydroxy-4-(5-(((1S,2S)-2-(hydroxymethyl)cyclopropyl)buta-1,3-diyn-1-yl)-2H-indazol-2-yl)-2-methyl-2-(methylsulfonyl)butanamide formate]	0.25 µg/mL	0.125 µg/mL	2 µg/mL	0.063 µg/mL
C[C@@](CCn1cc2c(F)c(C#Cc3ccc(CO)cc3)ccc2n1)(C(=O)NO)S(C)(=O)=O.O=C(O)C(F)(F)F [Example 23, (R)-4-[4-fluoro-5-(4-hydroxymethyl-phenylethynyl)-indazol-2-yl]-N-hydroxy-2-methylsulfonyl-2-methyl-butanamide trifluoro-acetic acid salt]	4 µg/mL	0.25 µg/mL	1 µg/mL	0.25 µg/mL
C[C@@](CCn1cc2cc(-c3ccc(-n4nccn4)cc3)ccc2n1)(C(=O)NO)S(C)(=O)=O [Example 12, (R)—N-hydroxy-2-methylsulfonyl-2-methyl-4-[5-(4-[1,2,3]triazol-2-yl-phenyl)-indazol-2-yl]-butanamide]	2 µg/mL (≈ 4.4 µM)	0.125 µg/mL (≈ 0.275 µM)	1 µg/mL (≈ 2.2 µM)	0.063 µg/mL (≈ 0.139 µM)
C[C@@](CCn1cc2cc(C#Cc3ccc(NC(=O)CO)cc3)ccc2n1)(C(=O)NO)S(C)(=O)=O [Example 47, (R)—N-hydroxy-4-(5-((4-(2-hydroxyacetamido)phenyl)ethynyl)-2H-indazol-2-yl)-2-methyl-2-(methylsulfonyl)butanamide]	1 µg/mL (≈ 2.06 µM)	0.5 µg/mL (≈ 1.03 µM)	1 µg/mL (≈ 2.06 µM)	0.25 µg/mL (≈ 0.516 µM)
C[C@@](CCn1cc2cc(C#Cc3ccc(OCCO)cc3)ccc2n1)(C(=O)NO)S(C)(=O)=O [Example 44, (R)—N-hydroxy-4-(5-((4-(2-hydroxyethoxy)phenyl)ethynyl)-2H-indazol-2-yl)-2-methyl-2-(methylsulfonyl)butanamide]	1 µg/mL (≈ 2.12 µM)	0.25 µg/mL (≈ 0.53 µM)	0.25 µg/mL (≈ 0.53 µM)	0.125 µg/mL (≈ 0.265 µM)
C[C@@](CCn1cc2cc(C#CC#C[C@@H]3C[C@H]3CN)ccc2n1)(C(=O)NO)S(C)(=O)=O [Example 72, (R)-4-(5-(((1R,2R)-2-(aminomethyl)cyclopropyl)buta-1,3-diyn-1-yl)-2H-indazol-2-yl)-N-hydroxy-2-methyl-2-(methylsulfonyl)butanamide]	2 µg/mL (≈ 4.67 µM)	4 µg/mL (≈ 9.33 µM)	> 8 µg/mL	2 µg/mL (≈ 4.67 µM)
C[C@@](CCn1cc2cc(C#CC#CC3(N)CC3)ccc2n1)(C(=O)NO)S(C)(=O)=O [Example 65, (R)-4-(5-((1-aminocyclopropyl)buta-1,3-diyn-1-yl)-2H-indazol-2-yl)-N-hydroxy-2-methyl-2-(methylsulfonyl)butanamide]	0.5 µg/mL (≈ 1.21 µM)	0.125 µg/mL (≈ 0.302 µM)	> 32 µg/mL	0.125 µg/mL (≈ 0.302 µM)
CC(C)(N)C(=O)N1CC(C#CC#Cc2ccc3nn(CC[C@](C)(C(=O)NO)S(C)(=O)=O)cc3c2)C1 [Example 85, (R)-4-(5-((1-(2-amino-2-methylpropanoyl)azetidin-3-yl)buta-1,3-diyn-1-yl)-2H-indazol-2-yl)-N-hydroxy-2-methyl-2-(methylsulfonyl)butanamide]	2 µg/mL (≈ 4 µM)	8 µg/mL (≈ 16 µM)	> 32 µg/mL	4 µg/mL (≈ 8.01 µM)
C[C@@](CCn1cc2cc(C#CC#CCC3(O)COC3)ccc2n1)(C(=O)NO)S(C)(=O)=O [Example 80, (R)—N-hydroxy-4-(5-(5-(3-hydroxyoxetan-3-yl)penta-1,3-diyn-1-yl)-2H-indazol-2-yl)-2-methyl-2-(methylsulfonyl)butanamide]	1 µg/mL (≈ 2.24 µM)	1 µg/mL (≈ 2.24 µM)	32 µg/mL (≈ 71.8 µM)	0.5 µg/mL (≈ 1.12 µM)
C[C@@](CCn1cc2cc(C#Cc3ccc(CO)cc3F)ccc2n1)(C(=O)NO)S(C)(=O)=O [Example 39, (R)-4-[5-(2-fluoro-4-hydroxymethyl-phenylethynyl)-indazol-2-yl]-N-hydroxy-2-methylsulfonyl-2-methyl-butanamide]	1 µg/mL (≈ 2.18 µM)	0.125 µg/mL (≈ 0.272 µM)	0.25 µg/mL (≈ 0.544 µM)	0.125 µg/mL (≈ 0.272 µM)
CC(C)(O)C#CC#Cc1ccc2nn(CC[C@](C)(C(=O)NO)S(C)(=O)=O)cc2c1 [Example 32, (R)—N-hydroxy-4-[5-(5-hydroxy-5-methyl-hexa-1,3-diynyl)-indazol-2-yl]-2-methylsulfonyl-2-methyl-butanamide]	1 µg/mL (≈ 2.4 µM)	0.5 µg/mL (≈ 1.2 µM)	32 µg/mL (≈ 76.6 µM)	0.5 µg/mL (≈ 1.2 µM)
C[C@@](CCn1cc2cc(C#Cc3ccc([C@@H](O)CO)cc3)ccc2n1)(C(=O)NO)S(C)(=O)=O [Example 26, (2R)-4-{5-[4-((R)-1,2-dihydroxy-ethyl)-phenylethynyl]-indazol-2-yl}-N-hydroxy-2-methylsulfonyl-2-methyl-butanamide]	1 µg/mL (≈ 2.12 µM)	0.5 µg/mL (≈ 1.06 µM)	8 µg/mL (≈ 17 µM)	0.5 µg/mL (≈ 1.06 µM)
C[C@@](CCn1cc2c(F)c(C#CC#C[C@H]3C[C@@H]3CO)ccc2n1)(C(=O)NO)S(C)(=O)=O [Example 54, (R)-4-(4-fluoro-5-(((1S,2S)-2-(hydroxymethyl)cyclopropyl)buta-1,3-diyn-1-yl)-2H-indazol-2-yl)-N-hydroxy-2-methyl-2-(methylsulfonyl)butanamide]	0.5 µg/mL (≈ 1.12 µM)	≤ 0.063 µg/mL	4 µg/mL (≈ 8.94 µM)	≤ 0.063 µg/mL
C[C@@](CCn1cc2cc(C#CC#CC3(O)COC3)c(F)cc2n1)(C(=O)NO)S(C)(=O)=O [Example 31, (R)-4-{6-fluoro-5-[4-(3-hydroxy-oxetan-3-yl)-buta-1,3-diynyl]-indazol-2-yl}-N-hydroxy-2-methylsulfonyl-2-methyl-butanamide]	2 µg/mL (≈ 4.45 µM)	1 µg/mL (≈ 2.22 µM)	> 32 µg/mL	1 µg/mL (≈ 2.22 µM)
C[C@@](CCn1cc2cc(C#Cc3ccc(CO)c(F)c3)ccc2n1)(C(=O)NO)S(C)(=O)=O [Example 22, (R)-4-[5-(3-fluoro-4-hydroxymethyl-phenylethynyl)-indazol-2-yl]-N-hydroxy-2-methylsulfonyl-2-methyl-butanamide]	2 µg/mL (≈ 4.35 µM)	0.5 µg/mL (≈ 1.09 µM)	1 µg/mL (≈ 2.18 µM)	0.125 µg/mL (≈ 0.272 µM)
C[C@@](CCn1cc2cc(C#Cc3ccc(CCO)cc3)ccc2n1)(C(=O)NO)S(C)(=O)=O [Example 25, (R)—N-hydroxy-4-{5-[4-(2-hydroxy-ethyl)-phenylethynyl]-indazol-2-yl}-2-methylsulfonyl-2-methyl-butanamide]	0.5 µg/mL (≈ 1.1 µM)	0.063 µg/mL (≈ 0.138 µM)	0.5 µg/mL (≈ 1.1 µM)	0.063 µg/mL (≈ 0.138 µM)
C[C@@](CCn1cc2cc(C#Cc3ccc(C4(O)COC4)cc3)ccc2n1)(C(=O)NO)S(C)(=O)=O [Example 20, (R)—N-hydroxy-4-{5-[4-(3-hydroxy-oxetan-3-yl)-phenylethynyl]-indazol-2-yl}-2-methylsulfonyl-2-methyl-butanamide]	0.5 µg/mL (≈ 1.03 µM)	0.125 µg/mL (≈ 0.259 µM)	0.5 µg/mL (≈ 1.03 µM)	0.25 µg/mL (≈ 0.517 µM)
